ChEMBL document CHEMBL1201862, “PubChem BioAssay data set” (2004)
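Results reflect a 48-hour exposure of cells in 96-well plates to compound at five concentrations. At the GI50, growth is halved.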 Activity calls are given as the source filed them. Cut-off read from the data, not from the text of the source: active = GI50 up to about 1.1 µM and inactive = higher.

Assays:
Experiment in all cases: inhibition of tumour cell growth, NCI panel, 48 h
COLO 205 = system: COLO 205
SN12C = system: SN12C
UACC-62 = system: UACC-62
HCT-15 = system: HCT-15
Malme-3M = system: Malme-3M
OVCAR-5 = system: OVCAR-5
HOP-62 = system: HOP-62
Hs-578T = system: Hs-578T
MDA-N = system: MDA-N
PC-3 = system: PC-3
NCI-H226 = system: NCI-H226
K562 = system: K562
CAKI-1 = system: CAKI-1
BT-549 = system: BT-549
UACC-257 = system: UACC-257
HT-29 = system: HT-29
SK-MEL-5 = system: SK-MEL-5
NCI-H23 = system: NCI-H23
OVCAR-8 = system: OVCAR-8
SK-MEL-2 = system: SK-MEL-2

SMILES | GI50 (COLO 205) | GI50 (SN12C) | GI50 (UACC-62) | GI50 (HCT-15) [µM] | GI50 (Malme-3M) | GI50 (OVCAR-5) | GI50 (HOP-62) | GI50 (Hs-578T) | GI50 (MDA-N) | GI50 (PC-3) | GI50 (NCI-H226) | GI50 (K562) | GI50 (CAKI-1) | GI50 (BT-549) | GI50 (UACC-257) | GI50 (HT-29) | GI50 (SK-MEL-5) | GI50 (NCI-H23) | GI50 (OVCAR-8) | GI50 (SK-MEL-2)
CCCCNCC(=O)O[C@]1(CC)C(=O)OCc2c1cc1n(c2=O)Cc2cc3ccccc3nc2-1 | 1.7 µM (inactive) | 0.0622 µM (active) | 0.0578 µM (active) | 2.15 | 2.84 µM (inactive) | 0.535 µM (active) | < 0.0277 µM (active) | 31.9 µM (inactive) | 2.11 µM (inactive) | 1.85 µM (inactive) | 0.105 µM (active) | 0.476 µM (active) | 0.0647 µM (active) | 0.391 µM (active) | 0.646 µM (active) | 0.838 µM (active) | 0.277 µM (active) | 0.0769 µM (active) | 0.217 µM (active) | 3.14 µM (inactive)
O=c1[nH]c2cc3cccnc3c(Cl)c2nc1C(F)(F)F | 36.4 µM (inactive) | 75.5 µM (inactive) | 22 µM (inactive) | 44.5 | 77.8 µM (inactive) | > 100 µM (inactive) | 29.3 µM (inactive) | 58.1 µM (inactive) | 37.2 µM (inactive) | 52 µM (inactive) | 30.1 µM (inactive) | 29.7 µM (inactive) | 21.2 µM (inactive) | 38.9 µM (inactive) | 27.1 µM (inactive) | 51.3 µM (inactive) | 14.5 µM (inactive) | 25 µM (inactive) | 28.8 µM (inactive) | 48.2 µM (inactive)
CS(=O)(=O)N(CC(=O)O)Cc1ccccc1 | > 100 µM (inactive) | > 100 µM (inactive) | > 100 µM (inactive) | > 100 | > 100 µM (inactive) | > 100 µM (inactive) | > 100 µM (inactive) | > 100 µM (inactive) | > 100 µM (inactive) | > 100 µM (inactive) | > 100 µM (inactive) | > 100 µM (inactive) | > 100 µM (inactive) | > 100 µM (inactive) | > 100 µM (inactive) | > 100 µM (inactive) | > 100 µM (inactive) | > 100 µM (inactive) | > 100 µM (inactive) | > 100 µM (inactive)
O=C(C1OC1c1ccc(F)cc1)C12CC3CC(CC(C3)C1)C2 (stereo not given) | 16 µM (inactive) | 16.4 µM (inactive) | 15.2 µM (inactive) | 15.5 | 21.3 µM (inactive) | 19.6 µM (inactive) | 27 µM (inactive) | 23.2 µM (inactive) | 12.7 µM (inactive) | 30.7 µM (inactive) | 20.2 µM (inactive) | 17.6 µM (inactive) | 25 µM (inactive) | 15.6 µM (inactive) | 26.9 µM (inactive) | 20.2 µM (inactive) | 16.5 µM (inactive) | 22.1 µM (inactive) | 14.4 µM (inactive) | 12.9 µM (inactive)
O=c1cc(/N=N\c2ccc(Cl)c(Cl)c2)[nH]c(=O)[nH]1 | 1.81 µM (inactive) | 2.11 µM (inactive) | 2.01 µM (inactive) | 1.72 | 2.23 µM (inactive) | 4.85 µM (inactive) | 6.43 µM (inactive) | 2.57 µM (inactive) | 1.8 µM (inactive) | 5.74 µM (inactive) | 15.1 µM (inactive) | 0.977 µM (active) | 2.07 µM (inactive) | 2.21 µM (inactive) | 2.38 µM (inactive) | 1.73 µM (inactive) | 4.89 µM (inactive) | 3.89 µM (inactive) | 2.21 µM (inactive) | 5.2 µM (inactive)
CCCCCCCCCCCCCCCC[N+](C)(C)CCl | 1.65 µM (inactive) | 3.19 µM (inactive) | 2.29 µM (inactive) | 3.59 | 2.65 µM (inactive) | 6.89 µM (inactive) | 2.29 µM (inactive) | 1.85 µM (inactive) | 3.72 µM (inactive) | 2.17 µM (inactive) | 2.12 µM (inactive) | 1.75 µM (inactive) | 2.67 µM (inactive) | 2.29 µM (inactive) | 4.71 µM (inactive) | 1.59 µM (inactive) | 1.68 µM (inactive) | 4.19 µM (inactive) | 2.61 µM (inactive) | 13.3 µM (inactive)
CCN(CC)CC[n+]1ccc2c(C)c3[nH]c4ccc(O)cc4c3c(C)c2c1 | 3.18 µM (inactive) | 0.414 µM (active) | 6.56 µM (inactive) | 18.7 | 5.83 µM (inactive) | 15.9 µM (inactive) | 2.03 µM (inactive) | 0.552 µM (active) | 8.89 µM (inactive) | 7.46 µM (inactive) | 1.05 µM (active) | 4.06 µM (inactive) | 13.8 µM (inactive) | 12.7 µM (inactive) | 19.6 µM (inactive) | 8.45 µM (inactive) | 3.09 µM (inactive) | 3.82 µM (inactive) | 3.72 µM (inactive) | 16 µM (inactive)
CC1OC(O)C(O)C(O)C1O (stereo not given) | > 100 µM (inactive) | > 100 µM (inactive) | > 100 µM (inactive) | > 100 | > 100 µM (inactive) | > 100 µM (inactive) | > 100 µM (inactive) | > 100 µM (inactive) | > 100 µM (inactive) | > 100 µM (inactive) | > 100 µM (inactive) | > 100 µM (inactive) | > 100 µM (inactive) | > 100 µM (inactive) | > 100 µM (inactive) | > 100 µM (inactive) | > 100 µM (inactive) | > 100 µM (inactive) | > 100 µM (inactive) | > 100 µM (inactive)
CC1(C)C2CCC1C(=O)C(C=O)C2 (stereo not given) | > 100 µM (inactive) | > 100 µM (inactive) | > 100 µM (inactive) | 49.5 | > 100 µM (inactive) | > 100 µM (inactive) | > 100 µM (inactive) | > 100 µM (inactive) | > 100 µM (inactive) | > 100 µM (inactive) | > 100 µM (inactive) | > 100 µM (inactive) | > 100 µM (inactive) | > 100 µM (inactive) | > 100 µM (inactive) | > 100 µM (inactive) | > 100 µM (inactive) | > 100 µM (inactive) | > 100 µM (inactive) | > 100 µM (inactive)
O=C(O)COc1cccc2ccccc(=O)c12 | > 100 µM (inactive) | > 100 µM (inactive) | > 100 µM (inactive) | > 100 | > 100 µM (inactive) | > 100 µM (inactive) | > 100 µM (inactive) | > 100 µM (inactive) | > 100 µM (inactive) | > 100 µM (inactive) | > 100 µM (inactive) | > 100 µM (inactive) | > 100 µM (inactive) | > 100 µM (inactive) | > 100 µM (inactive) | > 100 µM (inactive) | > 100 µM (inactive) | > 100 µM (inactive) | > 100 µM (inactive) | > 100 µM (inactive)
COc1ccc(/C=C2\CCC(Cc3ccccc3)(CN(C)C)C2=O)cc1 (stereo not given) | 37.8 µM (inactive) | 61.2 µM (inactive) | 36.9 µM (inactive) | 26.7 | 42.3 µM (inactive) | > 96.2 µM (inactive) | > 100 µM (inactive) | > 91.2 µM (inactive) | 38.3 µM (inactive) | 83.9 µM (inactive) | 42 µM (inactive) | 26.4 µM (inactive) | 48 µM (inactive) | 68.5 µM (inactive) | 25.2 µM (inactive) | 32.9 µM (inactive) | 20.8 µM (inactive) | 44 µM (inactive) | 41.6 µM (inactive) | 60.4 µM (inactive)
Clc1ccc(CSc2ncnc3c2ncn3C2CCCCO2)cc1 (stereo not given) | 20 µM (inactive) | 18.3 µM (inactive) | 15.7 µM (inactive) | 26.5 | 17.9 µM (inactive) | 37.4 µM (inactive) | 18.7 µM (inactive) | 26.5 µM (inactive) | 20.1 µM (inactive) | 25.6 µM (inactive) | 28.4 µM (inactive) | 12.6 µM (inactive) | 26.3 µM (inactive) | 24.3 µM (inactive) | 11.2 µM (inactive) | 18.8 µM (inactive) | 10.9 µM (inactive) | 17.4 µM (inactive) | 22.9 µM (inactive) | 16.4 µM (inactive)
CN1CN(c2ccccc2)C2(CCN(CCCN(C)c3ccc(F)cc3)CC2)C1=O | 11.6 µM (inactive) | 34.5 µM (inactive) | 18.7 µM (inactive) | 22.3 | 19.5 µM (inactive) | 17.3 µM (inactive) | 17.7 µM (inactive) | 18.7 µM (inactive) | 16.3 µM (inactive) | 23.4 µM (inactive) | 19.1 µM (inactive) | 1.58 µM (inactive) | 30.1 µM (inactive) | 15.2 µM (inactive) | 17.8 µM (inactive) | 10.1 µM (inactive) | 16.2 µM (inactive) | 19.1 µM (inactive) | 18.9 µM (inactive) | 17.5 µM (inactive)
OCCCCCCCCCCCOc1ccc(C2OCC3(CO2)COC(c2ccc(OCCCCCCCCCCCO)cc2)OC3)cc1 (stereo not given) | > 50 µM (inactive) | > 50 µM (inactive) | > 50 µM (inactive) | > 50 | > 50 µM (inactive) | > 50 µM (inactive) | > 50 µM (inactive) | > 50 µM (inactive) | > 50 µM (inactive) | > 50 µM (inactive) | 29.6 µM (inactive) | > 50 µM (inactive) | > 50 µM (inactive) | > 50 µM (inactive) | > 50 µM (inactive) | > 50 µM (inactive) | > 50 µM (inactive) | > 50 µM (inactive) | > 50 µM (inactive) | > 50 µM (inactive)
